Test results published in patent US10787444B2, “Compounds for the modulation of myc activity” (Syros Pharmaceuticals, Inc., priority 2015, dated 2020).
Structures can show the parent of a compound that is named as a salt. Where two headings read alike, the source gives them in different places.

Columns and labels:
c-Myc/Max/Ebox DNA = target: T1, c-Myc/Max/Ebox DNA (Homo sapiens, UniProt P01106); assay: c-Myc/Max/Ebox DNA AlphaScreen Assay; assay type: binding; details: Table 2, compounds of FIG. 1, calculated IC50 class
T1 construct: his6 (cleaved yes)
T1 sequence (P01106 whole entry): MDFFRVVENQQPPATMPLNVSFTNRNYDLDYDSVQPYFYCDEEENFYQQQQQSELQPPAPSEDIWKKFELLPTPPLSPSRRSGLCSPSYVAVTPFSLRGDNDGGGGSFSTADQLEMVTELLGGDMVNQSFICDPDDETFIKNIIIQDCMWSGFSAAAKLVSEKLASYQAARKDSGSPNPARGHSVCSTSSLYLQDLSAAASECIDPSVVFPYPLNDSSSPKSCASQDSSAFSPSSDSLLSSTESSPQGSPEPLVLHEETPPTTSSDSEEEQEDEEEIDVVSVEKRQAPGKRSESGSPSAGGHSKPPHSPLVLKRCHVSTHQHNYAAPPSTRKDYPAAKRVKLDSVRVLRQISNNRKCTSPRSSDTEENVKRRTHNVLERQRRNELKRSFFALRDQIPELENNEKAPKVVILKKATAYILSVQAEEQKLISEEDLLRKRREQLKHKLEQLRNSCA
Outline: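 Compounds were preincubated with free c-Myc (20 nM), biotinylated single-Ebox DNA (10 nM) and Ni acceptor beads before his6-Max (5 nM) and streptavidin donor beads were added. Buffer was 50 mM HEPES pH 8.0, 150 mM NaCl, BSA, Tween20, glycogen and DTT, with DMSO ≤2%. After 2 h incubation, AlphaScreen signal was read at 680 nm excitation and 520–620 nm emission.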

[1] = test system: human small lung cancer cell line H2171; assay: Cell Viability Assay (ATPlite); assay type: cell-based; details: Table 2, compounds of FIG. 1, H2171 cells, three days, ATPlite, calculated IC50 class, read-out: H2171 Activity
Outline: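 Viability readout was ATPlite luminescence, taken after 3 days' incubation at 37° C. Human SCLC H2171 cells (20,000 cells/mL) received compound right after plating, as a 10-point dose response.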

Structure (SMILES) | IC50 (c-Myc/Max/Ebox DNA) | IC50 (c-Myc/Max/Ebox DNA; listed as 116) | IC50 ([1]; Homo sapiens, NCI-H2171, 72 h) | IC50 ([1]; listed as 116) | IC50 [1]
CCN(C)CCC(=O)Nc1sc2c(c1-c1nc3ccccc3s1)CCN(C(C)C)C2 [Compound 572] | 300 to 1000 nM | – | < 300 nM | – | –
CC[C@@H](C)NCCC(=O)Nc1sc2c(c1-c1nc3cc(C(F)(F)F)ccc3s1)CCN(C(C)C)C2 [Compound 574, (R)-3-(sec-butylamino)-N-(6-isopropyl-3-(5-(trifluoromethyl)benzo[d]thiazol-2-yl)-4,5,6,7-tetrahydrothieno[2,3-c]pyridin-2-yl)propanamide] | < 300 nM | – | < 300 nM | – | –
CCC(C)N(C)CCC(=O)Nc1sc2c(c1-c1nc3ccccc3s1)CCN(C(C)C)C2 (centres unmarked) [Compound 577, N-(3-(benzo[d]thiazol-2-yl)-6-isopropyl-4,5,6,7 tetrahydrothieno[2,3-c]pyridin-2-yl)-3-(sec-butyl(methyl)amino)propanamide] | > 10000 nM | – | – | – | > 10000 nM
CC[C@H](C)NCCC(=O)Nc1sc2c(c1-c1nc3cc(C(F)(F)F)ccc3s1)CCN(C(C)C)C2 [Compound 578, (S)-3-(sec-butylamino)-N-(6-isopropyl-3-(5-(trifluoromethyl)benzo[d]thiazol-2-yl)-4,5,6,7-tetrahydrothieno[2,3-c]pyridin-2-yl)propanamide] | 300 to 1000 nM | – | < 300 nM | – | –
CC[C@H](C)NCCC(=O)Nc1sc2c(c1-c1nc3cc(-c4ccncc4)ccc3s1)CCN(CC)C2 [Compound 588, (S)-3-(sec-butylamino)-N-(6-ethyl-3-(5-(pyridin-4-yl)benzo[d]thiazol-2-yl)-4,5,6,7-tetrahydrothieno[2,3-c]pyridin-2-yl)propanamide] | < 300 nM | – | < 300 nM | – | –
CCC(C)NCCC(=O)Nc1sc2c(c1-c1nc3cc(-c4ccncc4)ccc3s1)CCNC2C [Compound 590, 3-(((S)-sec-butyl)amino)-N—((R)-7-methyl-3-(5-pyridin-4-yl)benzo[d]thiazol-2-yl)-4,5,6,7-tetrahydrothieno[2,3-c]pyridin-2-yl)propanamide] | < 300 nM | – | < 300 nM | – | –
Cc1ncsc1-c1ccc(CNC(=O)[C@@H]2C[C@@H](O)CN2C(=O)[C@@H](NC(=O)CCOCCOCCOCCOCCOCCOCCNCCC(=O)Nc2sc3c(c2-c2nc4ccccc4s2)CCNC3)C(C)(C)C)cc1 [Compound 591, N1-(3-(benzo[d]thiazol-2-yl)-4,5,6,7-tetrahydrothieno[2,3-c]pyridin-2-yl)-N25-((S)-1-((2S,4R)-4-hydroxy-2-((4-(4-methylthiazol-5-yl)benzyl)carbamoyl)pyrrolidin-1-yl)-3,3-dimethyl-1-oxobutan-2-yl)-7,10,13,16,19,22-hexaoxa-4-azapentacosanediamide] | > 10000 nM | – | < 300 nM | – | –
CC[C@H](C)NCCC(=O)Nc1sc2c(c1-c1nc3cc(-c4ccncc4)ccc3s1)CCN(C1CCC1)C2 [Compound 595, (S)-3-(sec-butylamino)-N-(6-cyclobutyl-3-(5-(pyridin-4-yl)benzo[d]thiazol-2-yl)-4,5,6,7-tetrahydrothieno[2,3-c]pyridin-2-yl)propanamide] | < 300 nM | – | 300 to 1000 nM | – | –
CC[C@H](C)NCCC(=O)Nc1sc2c(c1-c1nc3cc(-c4ccncc4)ccc3s1)CCN(C1CC1)C2 [Compound 618, (S)-3-(sec-butylamino)-N-(6-cyclopropyl-3-(5-(pyridin-4-yl)benzo[d]thiazol-2-yl)-4,5,6,7-tetrahydrothieno[2,3-c]pyridin-2-yl)propanamide] | < 300 nM | – | < 300 nM | – | –
CC[C@H](C)NCCC(=O)Nc1sc2c(c1-c1nc3ccccc3s1)CCN(C1CC(F)(F)C1)C2 [Compound 619, (S)—N-(3-(benzo[d]thiazol-2-yl)-6-(3,3-difluorocyclobutyl)-4,5,6,7-tetrahydrothieno[2,3-c]pyridin-2-yl)-3-(sec-butylamino)propanamide] | 1000 to 10000 nM | – | < 300 nM | – | –
CCOC(=O)CCOCCOCCOCCOCCOCCOCCNCCC(=O)Nc1sc2c(c1-c1nc3ccccc3s1)CCNC2 [Compound 622, Ethyl 1-((3-(benzo[d]thiazol-2-yl)-4,5,6,7-tetrahydrothieno[2,3-c]pyridin-2-yl)amino)-1-oxo-7,10,13,16,19,22-hexaoxa-4-azapentacosan-25-oate] | < 300 nM | – | < 300 nM | – | –

Now from value to compound:

IC50 (c-Myc/Max/Ebox DNA) | IC50 (c-Myc/Max/Ebox DNA; listed as 116) | IC50 ([1]; Homo sapiens, NCI-H2171, 72 h) | IC50 ([1]; listed as 116) | IC50 [1] | Structure (SMILES)
< 300 nM | 1000 to 10000 nM | < 300 nM | 1000 to 10000 nM | – | CCC(C)NCCC(=O)Nc1sc2c(c1-c1nc3cc4c(cc3s1)OCO4)CCNC2 (centres unmarked) [Compound 555, N-(3-([1,3]Dioxolo[4′,5′:4,5]benzo[1,2-d]thiazol-6-yl)-4,5,6,7-tetrahydrothieno[2,3-c]pyridin-2-yl)-3-(sec-butylamino)propanamide]
< 300 nM | – | < 300 nM | – | – | COCCNCCC(=O)Nc1sc2c(c1-c1nc3cc4c(cc3s1)OCO4)CCNC2 [Compound 556, N-(3-([1,3]Dioxolo[4′,5′:4,5]benzo[1,2-d]thiazol-6-yl)-4,5,6,7-tetrahydrothieno[2,3-c]pyridin-2-yl)-3-((2-methoxyethyl)amino)propanamide]
< 300 nM | – | < 300 nM | – | – | COCCNCCC(=O)Nc1sc2c(c1-c1nc3cc(F)ccc3s1)CCN[C@@H]2C [Compound 557]
< 300 nM | – | < 300 nM | – | – | CCC(C)NCCC(=O)Nc1sc2c(c1-c1nc3cc4c(cc3s1)OCO4)CCN(C(C)C)C2 (centres unmarked) [Compound 563, N-(3-([1,3]Dioxolo[4′,5′:4,5]benzo[1,2-d]thiazol-6-yl)-6-isopropyl-4,5,6,7-tetrahydrothieno[2,3-c]pyridin-2-yl)-3-(sec-butylamino)propanamide]
< 300 nM | – | < 300 nM | – | – | COCCNCCC(=O)Nc1sc2c(c1-c1nc3cc(F)ccc3s1)C[C@H](C)NC2 [Compound 571]
300 to 1000 nM | – | 300 to 1000 nM | – | – | O=C(CCN[C@@H]1C[C@H]2CNC[C@H]2C1)Nc1sc2c(c1-c1nc3ccccc3s1)CCNC2 [Compound 573, N-(3-(Benzo[d]thiazol-2-yl)-4,5,6,7-tetrahydrothieno[2,3-c]pyridin-2-yl)-3-(((3aR,5s,6aS)-octahydrocyclopenta[c]pyrrol-5-yl)amino)propanamide]
< 300 nM | – | < 300 nM | – | – | COCCNCCC(=O)Nc1sc2c(c1-c1nc3cc(C(F)(F)F)ccc3s1)CCN(C(C)C)C2 [Compound 575, N-(6-Isopropyl-3-(5-(trifluoromethyl)benzo[d]thiazol-2-yl)-4,5,6,7-tetrahydrothieno[2,3-c]pyridin-2-yl)-3-((2-methoxyethyl)amino) propanamide]
< 300 nM | – | < 300 nM | – | – | CCC(C)NCCC(=O)Nc1sc2c(c1-c1nc3cc(C)c(C)cc3s1)CCNC2 (centres unmarked) [Compound 576, 3-(sec-Butylamino)-N-(3-(5,6-dimethylbenzo[d]thiazol-2-yl)-4,5,6,7-tetrahydrothieno[2,3-c]pyridin-2-yl)propanamide]
< 300 nM | – | < 300 nM | – | – | CC[C@H](C)NCCC(=O)Nc1sc2c(c1-c1nc3cc(-c4ccncc4)ccc3s1)CCNC2 [Compound 579, (S)-3-(sec-butylamino)-N-(3-(5-(pyridin-4-yl)benzo[d]thiazol-2-yl)-4,5,6,7-tetrahydrothieno[2,3-c]pyridin-2-yl)Propanamide]
< 300 nM | – | < 300 nM | – | – | C=Cc1cccc2sc(-c3c(NC(=O)CCNCCOC)sc4c3CCNC4)nc12 [Compound 583, 3-(2-methoxyethylamino)-N-(3-(4-vinylbenzo[d]thiazol-2-yl)-4,5,6,7-tetrahydrothieno[2,3-c]pyridin-2-yl)propanamide bis(2,2,2-trifluoroacetate)]
< 300 nM | – | < 300 nM | – | – | CC[C@H](C)NCCC(=O)Nc1sc2c(c1-c1nc3cc(-c4ccncc4)ccc3s1)C[C@@H](C)NC2 [Compound 589, 3-(((S)-sec-butyl)amino)-N—((R)-5-methyl-3-(5(pyridin-4-yl)benzo[d]thiazol-2-yl)-4,5,6,7-tetrahydrothieno[2,3-c]pyridin-2-yl)propanamide]
< 300 nM | – | < 300 nM | – | – | COCCNCCC(=O)Nc1sc2c(c1-c1nc3c(-n4cnc(C)c4)cccc3s1)CCNC2 [Compound 592, 3-((2-Methoxyethyl)amino)-N-(3-(4-(4-methyl-1H-imidazol-1-yl)benzo[d]thiazol-2-yl)-4,5,6,7-tetrahydrothieno[2,3-c]pyridin-2-yl)propanamide trihydrochloride]
> 10000 nM | – | 300 to 1000 nM | – | – | CC[C@H](C)NCCC(=O)Nc1sc2c(c1-c1nc3ccccc3s1)CCN(C1CC1)C2 [Compound 596, (S)—N-(3-(benzo[d]thiazol-2-yl)-6-cyclopropyl-4,5,6,7-tetrahydrothieno[2,3-c]pyridin-2-yl)-3-(sec-butylamino)propanamide]
< 300 nM | – | 300 to 1000 nM | – | – | O=C(CCN[C@@H]1C[C@H]2CNC[C@H]2C1)Nc1sc2c(c1-c1nc3cc(-c4ccncc4)ccc3s1)CCNC2 [Compound 606, 3-(((3aR,5s,6aS)-octahydrocyclopenta[c]pyrrol-5-yl)amino)-N-(3-(5-(pyridin-4-yl)benzo[d]thiazol-2-yl)-4,5,6,7-tetrahydrothieno[2,3-c]pyridin-2-yl)propanamide]
1000 to 10000 nM | – | 300 to 1000 nM | – | – | COCCNCCC(=O)Nc1sc2c(c1-c1nc3c(OC)cccc3s1)CCNC2 [Compound 613, N-(3-(4-Methoxybenzo[d]thiazol-2-yl)-4,5,6,7-tetrahydrothieno[2,3-c]pyridin-2-yl)-3-((2-methoxyethyl)amino)propanamide dihydrochloride]
< 300 nM | – | < 300 nM | – | – | O=C(O)CCOCCOCCOCCOCCOCCOCCNCCC(=O)Nc1sc2c(c1-c1nc3ccccc3s1)CCNC2 [Compound 623]
